{
  "source": "patent US20250302816A1",
  "about": "“DISRUPTION OF EPITHELIAL BARRIERS FOR MOLECULAR DELIVERY ENHANCEMENT OR EXTRACTION OF EXTRACELLULAR FLUIDS” (The University of Nottingham, priority 2022, published 2025)",
  "key": {"MMP": {"system": "MMP", "assay": "Fluorogenic MMP activity assay", "type": "cell-based, human", "procedure": "FIG. 5: High-throughput MMP assay (MMP Activity Assay Kit (Fluorometric-Red), Abcam #ab112147) showing the normalised accumulation slope of FRET-based signal (Ex540: Em590 nm) read at 5 minute intervals for one hour in adherent Calu-3 cells cultured in glass-bottomed 96-well plates using a SpectraMax i3x/Biomek FXPP high-throughput platform. Each experiment was conducted in triplicate (error bars). Signal accumulation over time in each well was linearly fitted and the gradient of each fit was scaled against the gradient of the relevant positive control wells, to which active MMP was added directly (mixed isoforms, […]), to obtain the normalised accumulation slope.\nTo investigate the involvement of MMP in the disruption of tight junctions observed in the presence of 200 μM 3OC12-HSL and C7 PQS, a fluorogenic MMP activity assay was performed, using the Amplite™ Universal Fluorimetric MMP Activity Assay Kit. This kit is designed to check the general activity of a MMP enzyme.\nFollowing treatment with 3OC12-HSL and C7 PQS respectively, the conditioned media were collected every hour from apical chamber and MMP activity was determined by using Amplite™ Universal Fluorimetric MMP Activity Assay Kit Green Fluorescence according to the manufacturer's instructions.\nA fluorogenic MMP activity assay was carried out in the same manner on further agents."}, "ARPE-19 cell layers": {"system": "ARPE-19 cell layers", "assay": "Transwell drug transport across ARPE-19 cell layers with or without 3OC12-HSL", "type": "cell-based, human", "settings": "3OC12-HSL 200 μM", "procedure": "FIG. 1: Macromolecular therapeutics transported across ARPE-19 cell layers in the absence and presence of 3OC12-HSL transported into the basolateral chamber over a period of five hours. Permeability experiments were initiated by applying 0.5 ml of the test solutions (250 μg/ml Aflibercept/Bevacizumab/or Doxorubicin diluted in HBSS/HEPES) to the apical side of the cells (donor compartment of the Transwell) with or without 3OC12-HSL (200 μM). Drug permeability was determined by sampling the basolateral solution at regular time intervals. Data points are expressed as means±SEM, derived from three replicates in triplicate. p values of <0.05 were considered statistically significant. *, ** and *** denote p<0.05, p<0.01 and p<0.001, respectively.\nCalu-3 cells obtained from American Type Culture Collection, USA were cultured using Dulbecco's Modified Eagle Medium (DMEM) supplemented with penicillin (100 U/mL), streptomycin (0.1 mg/mL), amphotericin (0.25 μg/mL), non-essential amino acids (NEM, 1%) and Fetal Bovine Serum (FBS, 10% v/v, Sigma-Aldrich, UK). The human-derived RPE cell line ARPE-19 was obtained from American Type Culture Collection. Cells were grown in Dulbecco's Modified Eagle Medium: F12 (1:1; Gibco, Invitrogen, Carlsbad, CA), including 10% inactivated fetal bovine serum, 100 units/mL penicillin, 100 μg/mL streptomycin, and 2 mM L-glutamine (Sigma-Aldrich). Caco-2 cells were grown in complete culture medium (DMEM supplemented with 17% FBS and 1% antibiotic-antimycotic solution). All cells were kept in a water-jacketed incubator (model 3546, Forma Scientific, Inc., Marietta, OH, USA) maintained at 37° C. and an atmosphere of humidified air with 5% CO2. Medium was replaced every other day until cells reached the 80-90% confluence desired for re-plating or culturing mature, polarised barrier models.\nWhen confluent, cells were seeded on Transwell® filters (12 mm diameter, 0.4 μm pore size; Corning Life Sciences, Holland) at 10^5 cells/cm^2. […]\nThree polarised epithelial in-vitro tissue models, including lung epithelium (Calu-3), retinal pigment epithelium (ARPE-19) and intestinal epithelial (Caco-2) were used to study the efficiency of 200 μM 3OC12-HSL as a paracellular permeability enhancer for three different drugs: bevacizumab, aflibercept and doxorubicin (applied concentrations 250 μg/mL). The amount of drugs transported was determined via the conversion of fluorescence intensity to amount (μg or ng), using calibration curves constructed via serial standard dilutions. […]\nPermeability experiments were initiated by applying 0.5 mL of the test solutions to the apical side of the cells (donor compartment of the Transwell®). […] Drug permeability was determined by sampling the basolateral solution at regular time intervals. […]"}, "[1]": {"system": "diabetic rat model with increased retinal permeability", "assay": "Topical eye administration in diabetic rat model with increased vascular permeability", "type": "in vivo, Norway Brown rats", "settings": "topical co-application vs Bevacizumab alone"}, "all three cell lines": {"system": "all three cell lines", "assay": "MTS metabolic activity in all three cell lines", "type": "cell-based, human", "settings": "200 μM", "procedure": "The viability of Calu-3 cells was determined by a chromogenic MTS method based on the measuring of mitochondrial respiration, assessed by the reduction of 3-(4,5-dimethylthiazol-2-yl)-5-(3-carboxymethoxyphenyl)-2-(4-sulfophenyl)-2H-tetrazolium to formazan. Calu-3 cells were cultured in a 96-well plate (CellTiter 96® Aqueous, Promega) at a density of 10^4 cells per well and incubated at 37° C., 5% CO2 for 24 hours. After 24 hours, the medium was replaced with 100 μl of test compounds dissolved in HBSS and then cells were incubated for 6 hours. HBSS and Triton X-100 (0.1% v/v in HBSS) were used as the negative and positive controls respectively. Bathing solutions were then aspirated and cells washed with PBS. Then culture medium (100 μl at 37° C.) plus MTS reagent (20 μl) were added into each well and cells were incubated for 2 hours. Absorbance at 492 was measured using a Dynex absorbance microplate reader (Dynex Technologies, USA) and converted into a percentage metabolic rate.\nNo significant reduction in cell metabolic activity was observed. Cell viability of >75% was retained in all cases."}, "[2]": {"system": "human primary lung epithelium", "assay": "Human primary lung epithelium, air-liquid interface culture: TEER, FD4 and mAb delivery", "type": "cell-based"}},
  "data": [
    {"compound": "CCCCCCCCCC(=O)CC(=O)N[C@H]1CCOC1=O", "note": "[Agent 3OC12-HSL, N-(3-oxododecanoyl) homoserine lactone]", "values": [
      {"measurement": "MMP activation in apical samples taken at one-hour intervals", "setting": "MMP; 200 μM, p<0.01, no fluorescence in control samples", "result": "significant MMP activation"},
      {"measurement": "period over which MMP activation increased before starting to reduce", "setting": "MMP; samples taken hourly from apical chamber", "result": 4, "unit": "h"},
      {"measurement": "increase of bevacizumab permeability by 3OC12-HSL", "setting": "ARPE-19 cell layers; bevacizumab 250 μg/ml, at 60 minutes of exposure", "result": 2.5, "unit": "fold"},
      {"measurement": "enhancement of doxorubicin transport by 3OC12-HSL", "setting": "ARPE-19 cell layers; doxorubicin 250 μg/ml, after 5 hours", "result": 6, "unit": "fold"},
      {"measurement": "delivery of Bevacizumab into the posterior chamber of rat eyes (confocal images)", "setting": "[1]", "result": "significantly enhance"},
      {"measurement": "metabolic activity compared to the negative control", "setting": "all three cell lines", "result": "did not change the metabolic activity"},
      {"measurement": "TEER (electrical resistance) upon agent exposure", "setting": "[2]", "result": "temporarily reduced"},
      {"measurement": "mAb (Mepolizumab) delivery upon agent exposure", "setting": "[2]", "result": "increased"}
    ]}
  ]
}
